{"source": "paper PMC5702336", "about": "“Critical Role of Hepatic Cyp450s in the Testis-Specific Toxicity of (5R)-5-Hydroxytriptolide in C57BL/6 Mice” (Frontiers in Pharmacology, 2017)", "type_in_all_cases": "in vivo, mouse", "key": {"[1]": {"test_system": "mice testes", "assay": "Testicular toxicity comparison between triptolide and LLDT-8 (15 days by gavage, H&E)", "conditions": "0.5 mg/kg by gavage for 15 days", "method": "For toxicity experiments, mice (n = 3 for each group) were treated with tritpilide (0.125, 0.25, 0.5mg/kg), LLDT-8 (0.125, 0.25, 0.5mg/kg) consecutively administered by gavage for 15 days. The control group received saline. Mice were sacrificed on the 15th day post-administration and blood, liver, kidney, spleen, testis and epididymis were collected. The main lobe of liver, kidney, spleen and epididymis were fixed in 10% neutral buffered formalin for histological examination, the left testicle was fixed in Davidson’s buffer for 16 hours followed by 10% neutral buffered formalin. Tissue sections were stained with hematoxylin and eosin (H&E). Remaining tissues were stored at -80 °C for RNA and protein extraction.\nSupplementary Figure S1 Comparison of testicular toxicity between triptolide(TL) and LLDT-8. Mice (n=3) were weighted before sacrificed on the 15th day post-administration of triptolide, LLDT-8 or saline. The testes were collected and weighted. […] (G-H) Comparison of epididymis weight between triptolide and LLDT-8. Significant difference was determined by one-way Anova, mean ± SD. * p<0.05, *** p<0.001 vs Saline group. # p<0.05, ## p<0.01, ### p<0.001 vs T8 group at the same dosage."}, "[2]": {"test_system": "γ-H2AX", "assay": "γ-H2AX protein level and localization in testes and liver (western blot, immunofluorescence)", "method": "(§1) For toxicity experiments, mice (n = 3/group) were treated with LLDT-8 (0.5 or 1.0 mg/kg) consecutively administered by gavage for 15 days. Controls received saline. Mice were killed on the 15th-day post-administration and blood, liver, kidney, spleen, testes, and epididymis were collected. About 500 μL blood samples were collected from the heart. The main lobe of the liver, kidney, spleen, and epididymis was fixed in 10% neutral buffered formalin for histological examination, and the left testicle was fixed in modified Davidson's buffer (30% of a 37–40% solution of formaldehyde, 15% ethanol, 5% glacial acetic acid, and 50% distilled H2O) for 16 h followed by 10% neutral buffered formalin for 24 h (Latendresse et al., [2002]). Tissue sections were stained with hematoxylin and eosin (H&E). Remaining tissues were stored at −80°C for RNA and protein extraction.\n(§2) Cells were washed twice with ice-cold PBS (137 mM NaCl, 2.7 mM KCl, 10 mM Na2HPO4, and 1.8 mM KH2PO4, pH 7.4) and lysed in SDS sample buffer. Cell lysates, containing 20 μg of protein, were separated with SDS-PAGE (8%) and transferred to polyvinylidene difluoride membranes. After blocking in 5% non-fat milk in tris-buffered saline containing 0.1% Tween-20 (pH = 7.6), membranes were incubated with the appropriate primary antibodies at 4°C overnight. The primary antibodies γ-H2AX (Cat. No: 2577, Lot. No: 11, CST, USA) and Pol II (Cat. No: 05-623, Lot. No: 2397109, Millipore, USA) diluted 1:1000 in 5% bovine serum albumin (BSA, Cat. No. B2064-50G, Sigma, USA). Then the membranes were exposed to secondary antibodies (1:10,000, Cat. No.111-035-003, 115-035-003, Jackson ImmunoResearch Laboratories, USA) in 5% non-fat milk for 1 h at room temperature. Immunoreactive proteins were visualized using an enhanced chemiluminescent system (Cat. No. WBKLS0500, Millipore, Shanghai, China).\nFor immunofluorescence analysis, the paraffin-embedded testis tissue samples were deparaffinized three times in exchanges wash of xylene. The testis sections were then gradually rehydrated using decreasing ethanol concentrations followed by PBS (pH = 7.4). After antigen retrieval in boiling 0.1M citrate buffer (pH = 6.0), the tissue sections were placed in humidity chambers and incubated with 4% BSA in PBS for 2 h at room temperature. Then 1:400 1% BSA diluted γ-H2AX primary antibody (Cat. No: ab26350, Lot. No: GR305763-3, Abcam, USA) and isotope control Mouse IgG1 (Cat. No: sc-3877, Lot. No: F1316, Santa Cruz, USA) was used. After incubated with primary antibody overnight at 4°C, testis tissue samples were washed three times with PBS. […]"}, "[3]": {"test_system": "testes gene expression", "assay": "qPCR of AR-related, Sertoli cell and germ cell marker genes in testes", "method": "as §1\nTotal mouse testes RNA was isolated using a UNIQ-10 total RNA isolation kit (Sangon Biotech, Shanghai, China). One micro gram RNA per sample was reverse-transcribed into cDNA using a PrimeScript RT reagent kit (Cat. No. RR036A, Takara, Dalian, China). The purity and quality of RNA and cDNA were checked by A260/A280 ratio and agarose gel. The qPCR was executed in 20 μL volume containing 10 μL SYBR Premix Ex Taq (Cat. No. RR820A, Takara, Dalian, China), 8 μL of cDNA (80 ng cDNA), 1 μL forward primer (500 nM) and 1 μL reverse primer (500 nM). The sequences of primers for Androgen-binding protein (ABP) and cystatin 12 (Cst12) were referenced from PrimerBank. The sequences for other genes were described elsewhere [Deleted in azoospermia-like (Dazl), Heat shock protein a2 (Hspa2), Phosphoglycerate kinase-2 (Pgk2), Protamine 1 (Prm1), GATA binding protein 1 (Gata1) and Zbtb16 zinc finger and BTB domain containing 16 (Plzf) (Qi et al., [2016]); AR (Ma et al., [2013]); Reproductive homeobox 5 (Rhox5) (Kurek et al., [2015]); Fatty acid binding protein (FABP) (Vanschoonbeek et al., [2008]); Claudin 11 (Cldn11) (Sumigray et al., [2014]); β-actin (Wan et al., [2017])]. The qPCR process was performed using a Rotor Gene Q PCR system (QIAGEN, Shanghai, China). The qPCR amplification program consisted of polymerase activation at 98°C for the 30 s and 40 cycles of denaturation at 95°C for 5 s, annealing, and extension at 60°C for 40 s. The melting curve analysis was carried out for each reaction from 50 to 99°C. The CT values for the samples were normalized to the corresponding β-actin CT values."}, "[4]": {"test_system": "RNA polymerase II", "assay": "RNA polymerase II protein level in testes and liver (western blot)", "conditions": "0.5–1 mg/kg, 15 days", "method": "as §1, §2"}}}
{"smiles": "CC(C)[C@]12O[C@H]1[C@@H]1O[C@]13[C@]1(O[C@H]1C[C@@]1(O)C4=C(CC[C@]31C)C(=O)OC4)[C@@H]2O", "note": "[LLDT-8, (5R)-5-hydroxytriptolide]", "values": [{"measurement": "testis morphology (H&E)", "setting": "[1]", "value": "did not obviously alter the normal morphology of testes"}, {"measurement": "XY bodies indicated by γ-H2AX foci in testes of WT mice", "setting": "[2]; 1.0 mg/kg LLDT-8, 15 days", "value": "decreased"}, {"measurement": "γ-H2AX protein level (immunoblotting) in testes and liver", "setting": "[2]; 0.5–1 mg/kg, 15 days", "value": "reduction of γ-H2AX protein level in the testes but not in the liver"}, {"measurement": "XY bodies indicated by γ-H2AX foci in testes of KO mice", "setting": "[2]; LLDT-8 treated, 15 days", "value": "disappeared"}, {"measurement": "reduction of γ-H2AX in the testes of WT mice", "setting": "[2]; immunoblotting, not statistically significant", "value": "up to 40%"}, {"measurement": "expression of AR, Rhox5, Cldn11, Cst12, ABP and FABP in testes of WT mice", "setting": "[3]; 0.5–1.0 mg/kg, 15 days", "value": "did not reduce"}, {"measurement": "expression of Dazl and Prm1 in testes of WT mice", "setting": "[3]; 15 days", "value": "marked decrease"}, {"measurement": "expression of Hspa2 in testes of WT mice", "setting": "[3]; 15 days", "value": "mild decrease"}, {"measurement": "expression of Cldn11, Cst12 and FABP in testes of WT mice", "setting": "[3]; particularly in 1.0 mg/kg group", "value": "increased"}, {"measurement": "Pol II protein in the testes of KO mice", "setting": "[4]", "value": "decreased"}, {"measurement": "Pol II protein level in the livers of KO mice", "setting": "[4]", "value": "did not change"}, {"measurement": "expression of Pol II in the testes and liver of WT mice", "setting": "[4]", "value": "did not change significantly"}]}
